Test results as given in EPA's CvTdb concentration-time database.

Key:
Rat [1] = experiment: concentration in plasma after dosing; conditions: 1.5 h; dosed: 2-Methyltetrahydrofuran; 40 mg/kg; iv; Male; Harlan Sprague Dawley
Rat [2] = experiment: concentration in plasma after dosing; conditions: 0.75 h; dosed: 2-Methyltetrahydrofuran; 40 mg/kg; iv; Male; Harlan Sprague Dawley
Rat [3] = experiment: concentration in plasma after dosing; conditions: 4 h; dosed: 2-Methyltetrahydrofuran; 40 mg/kg; iv; Female; Harlan Sprague Dawley
Rat [4] = experiment: concentration in brain after dosing; conditions: 0.5 h; dosed: 2-Methyltetrahydrofuran; 40 mg/kg; iv; Female; Harlan Sprague Dawley
Rat [5] = experiment: concentration in plasma after dosing; conditions: 0.75 h; dosed: 2-Methyltetrahydrofuran; 40 mg/kg; iv; Male; Harlan Sprague Dawley; remark: listed apart in the source
Rat [6] = experiment: concentration in plasma after dosing; conditions: 0.5 h; dosed: 2-Methyltetrahydrofuran; 40 mg/kg; iv; Male; Harlan Sprague Dawley
Rat [7] = experiment: concentration in plasma after dosing; conditions: 0.2 h; dosed: 2-Methyltetrahydrofuran; 40 mg/kg; iv; Male; Harlan Sprague Dawley
Rat [8] = experiment: concentration in brain after dosing; conditions: 7 min; dosed: 2-Methyltetrahydrofuran; 40 mg/kg; iv; Male; Harlan Sprague Dawley
Rat [9] = experiment: concentration in plasma after dosing; conditions: dosed: 678-39-7, 12 mg/kg, iv, Male, F344
Rat [10] = experiment: concentration in plasma after dosing; conditions: 192 h; dosed: 678-39-7; 12 mg/kg; iv; Male; F344
Rat [11] = experiment: concentration in kidney after dosing; conditions: 12 h; dosed: Fluorotelomer alcohol 8+2; 80 mg/kg; oral; Female; Harlan Sprague Dawley
Rat [12] = experiment: concentration in brain after dosing; conditions: 12 h; dosed: Fluorotelomer alcohol 8+2; 80 mg/kg; oral; Female; Harlan Sprague Dawley
Rat [13] = experiment: concentration in kidney after dosing; conditions: 12 h; dosed: Fluorotelomer alcohol 8+2; 80 mg/kg; oral; Female; Harlan Sprague Dawley; remark: listed apart in the source
Rat [14] = experiment: concentration in plasma after dosing; conditions: dosed: Fluorotelomer alcohol 8+2, 12 mg/kg, oral, Male, Harlan Sprague Dawley
Rat [15] = experiment: concentration in liver after dosing; conditions: 1 h; dosed: Fluorotelomer alcohol 8+2; 80 mg/kg; oral; Female; Harlan Sprague Dawley
Rat [16] = experiment: concentration in kidney after dosing; conditions: 0.5 h; dosed: Perfluorohexanoic Acid; 80 mg/kg; oral; Female; Harlan Sprague Dawley
Rat [17] = experiment: concentration in plasma after dosing; conditions: dosed: Perfluorohexanoic Acid, 40 mg/kg, oral, Male, Harlan Sprague Dawley
Rat [18] = experiment: concentration in plasma after dosing; conditions: 0.5 h; dosed: Perfluorohexanoic Acid; 80 mg/kg; oral; Male; Harlan Sprague Dawley
Rat [19] = experiment: concentration in kidney after dosing; conditions: 6 h; dosed: Perfluorohexanoic Acid; 80 mg/kg; oral; Female; Harlan Sprague Dawley
Rat [20] = experiment: concentration in plasma after dosing; conditions: 1 h; dosed: Perfluorohexanoic Acid; 80 mg/kg; oral; Male; Harlan Sprague Dawley
Rat [21] = experiment: concentration in liver after dosing; conditions: 12 h; dosed: Perfluorohexanoic Acid; 80 mg/kg; oral; Male; Harlan Sprague Dawley
Rat [22] = experiment: concentration in brain after dosing; conditions: 0.5 h; dosed: Perfluorohexanoic Acid; 80 mg/kg; oral; Female; Harlan Sprague Dawley
Rat [23] = experiment: concentration in kidney after dosing; conditions: 0.5 h; dosed: Perfluorohexanoic Acid; 80 mg/kg; oral; Male; Harlan Sprague Dawley
Rat [24] = experiment: concentration in plasma after dosing; conditions: 1 h; dosed: Perfluorohexanoic Acid; 40 mg/kg; iv; Male; F344
Rat [25] = experiment: concentration in plasma after dosing; conditions: 0.75 h; dosed: Perfluorohexanoic Acid; 40 mg/kg; iv; Male; F344
Rat [26] = experiment: concentration in plasma after dosing; conditions: dosed: Perfluorohexanoic Acid, 40 mg/kg, oral, Male, Harlan Sprague Dawley; remark: listed apart in the source
Rat [27] = experiment: concentration in plasma after dosing; conditions: 15 h; dosed: Gemfibrozil; 50 mg/kg; oral; Male; Sprague-Dawley
Rat [28] = experiment: concentration in plasma after dosing; conditions: 24 h; dosed: Gemfibrozil; 100 mg/kg; oral; Male; Sprague-Dawley
Rat [29] = experiment: concentration in plasma after dosing; conditions: 15 h; dosed: Gemfibrozil; 50 mg/kg; oral; Male; Sprague-Dawley; remark: listed apart in the source
Rat [30] = experiment: concentration in plasma after dosing; conditions: 0.25 h; dosed: Gemfibrozil; 100 mg/kg; oral; Male; Sprague-Dawley
Rat [31] = experiment: concentration in plasma after dosing; conditions: 0.25 h; dosed: Gemfibrozil; 100 mg/kg; oral; Male; Sprague-Dawley; remark: listed apart in the source
Rat [32] = experiment: concentration in plasma after dosing; conditions: 10 h; dosed: Gemfibrozil; 4.29 mg/kg; oral; Male; Sprague-Dawley
Rat [33] = experiment: concentration in plasma after dosing; conditions: 18 h; dosed: Gemfibrozil; 50 mg/kg; oral; Male; Sprague-Dawley
Rat [34] = experiment: concentration in plasma after dosing; conditions: 1848 h; dosed: Perfluorooctane Sulfonate; 2 mg/kg; oral; Female; Harlan Sprague Dawley
Rat [35] = experiment: concentration in plasma after dosing; conditions: dosed: Perfluorooctane Sulfonate, 2 mg/kg, iv, Female, F344
Rat [36] = experiment: concentration in kidney after dosing; conditions: 6 h; dosed: Perfluorooctane Sulfonate; 20 mg/kg; oral; Male; Harlan Sprague Dawley
Rat [37] = experiment: concentration in kidney after dosing; conditions: 6 h; dosed: Perfluorooctane Sulfonate; 20 mg/kg; oral; Male; Harlan Sprague Dawley; remark: listed apart in the source
Rat [38] = experiment: concentration in brain after dosing; conditions: 864 h; dosed: Perfluorooctane Sulfonate; 20 mg/kg; oral; Male; Harlan Sprague Dawley
Rat [39] = experiment: concentration in plasma after dosing; conditions: 1848 h; dosed: Perfluorooctane Sulfonate; 2 mg/kg; oral; Female; Harlan Sprague Dawley; remark: listed apart in the source
Rat [40] = experiment: concentration in plasma after dosing; conditions: dosed: Perfluorooctane Sulfonate, 2 mg/kg, iv, Female, F344; remark: listed apart in the source
Rat [41] = experiment: concentration in kidney after dosing; conditions: 1848 h; dosed: Perfluorooctane Sulfonate; 20 mg/kg; oral; Male; Harlan Sprague Dawley

CC1CCCO1 (centres undefined) [2-Methyltetrahydrofuran]
Conditions | concentration in brain [ng/mL] | concentration in plasma [ng/mL]
Rat [1] | – | 12000
Rat [2] | – | 31600
Rat [3] | – | 186
Rat [4] | 12700 | –
Rat [5] | – | 26900
Rat [6] | – | 25600
Rat [7] | – | 32200
Rat [8] | 25400 | –

O=C(O)CCC(F)(F)C(F)(F)C(F)(F)C(F)(F)C(F)(F)C(F)(F)C(F)(F)F [Fluorotelomer acid 7+3]
concentration in plasma [ng/mL]
Conditions | Rat [9] | Rat [14]
0.5 h | 167 | 116
9 h | 164 | 264

Conditions | concentration in brain [ng/g] | concentration in kidney [ng/g] | concentration in liver [ng/g] | concentration in plasma [ng/mL]
Rat [10] | – | – | – | 8.6
Rat [11] | – | 3110 | – | –
Rat [12] | 484 | – | – | –
Rat [13] | – | 2750 | – | –
Rat [15] | – | – | 1620 | –

O=C(O)C(F)(F)C(F)(F)C(F)(F)C(F)(F)C(F)(F)F [Perfluorohexanoic Acid]
Conditions | concentration in brain [ng/g] | concentration in kidney [ng/g] | concentration in liver [ng/g] | concentration in plasma [ng/mL]
Rat [16] | – | 48100 | – | –
Rat [18] | – | – | – | 151000
Rat [19] | – | 9420 | – | –
Rat [20] | – | – | – | 146000
Rat [21] | – | – | 2130 | –
Rat [22] | 943 | – | – | –
Rat [23] | – | 99400 | – | –
Rat [24] | – | – | – | 3100
Rat [25] | – | – | – | 18600

concentration in plasma [ng/mL]
Conditions | 0.75 h | 3 h | 5 min | 12 h
Rat [17] | – | 48700 | 28800 | –
Rat [26] | 78200 | – | – | 5210

Cc1ccc(C)c(OCCCC(C)(C)C(=O)O)c1 [Gemfibrozil]
Conditions | concentration in plasma [ng/mL]
Rat [27] | 928
Rat [28] | 761
Rat [29] | 1550
Rat [30] | 35700
Rat [31] | 72300
Rat [32] | 405
Rat [33] | 1100

O=S(=O)([O-])C(F)(F)C(F)(F)C(F)(F)C(F)(F)C(F)(F)C(F)(F)C(F)(F)C(F)(F)F [Perfluorooctane Sulfonate]
Conditions | concentration in brain [ng/g] | concentration in kidney [ng/g] | concentration in plasma [ng/mL]
Rat [34] | – | – | 987
Rat [36] | – | 72300 | –
Rat [37] | – | 63800 | –
Rat [38] | 2500 | – | –
Rat [39] | – | – | 966
Rat [41] | – | 4810 | –

concentration in plasma [ng/mL]
Conditions | 1 h | 5 min | 192 h | 1704 h | 2376 h
Rat [35] | – | 5590 | 4170 | 940 | –
Rat [40] | 4240 | – | 4100 | – | 105
